According to the supplement of paper PMC10307832:

Experiments:
Experiment in all cases: relative viability (nuclei count vs DMSO), 5 days (fraction); higher = more cells survive
[1] = compound: C(C(=O)C(=O)O)Br [Bromopyruvate] + COc1cc2c(Oc3ccc(NC(=O)C4(C(=O)Nc5ccc(F)cc5)CC4)cc3F)ccnc2cc1OCCCN1CCOCC1 [Foretinib] (partner 0.25 µM)
Method in brief: (§1)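 Lung cancer cell lines in 1536-well plates got either a single drug or a fixed anchor-drug dose together with five library-drug doses (not always all listed) in √10 steps, by pin tool, on the day after seeding. Nuclei were counted after 5 days, and relative viability is the treated-to-vehicle ratio of nuclei counts. Values are medians of duplicate plates.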

[2] = compound: C(C(=O)C(=O)O)Br [Bromopyruvate] + O=C(CCCCCCC(=O)Nc1ccccc1)NO [Vorinostat] (partner 1 µM)
Method in brief: as §1

[3] = compound: CC(O)(CS(=O)(=O)c1ccc(F)cc1)C(=O)Nc1ccc(C#N)c(C(F)(F)F)c1 [Bicalutamide] + CC1(C)CCC(c2ccc(Cl)cc2)=C(CN2CCN(c3ccc(C(=O)NS(=O)(=O)c4ccc(N[C@H](CCN5CCOCC5)CSc5ccccc5)c(S(=O)(=O)C(F)(F)F)c4)cc3)CC2)C1 [Navitoclax] (partner 0.5 µM)
Method in brief: as §1

[4] = compound: CC(O)(CS(=O)(=O)c1ccc(F)cc1)C(=O)Nc1ccc(C#N)c(C(F)(F)F)c1 [Bicalutamide] + CC(=O)Nc1cccc(-n2c(=O)n(C3CC3)c(=O)c3c(Nc4ccc(I)cc4F)n(C)c(=O)c(C)c32)c1 [Trametinib] (partner 0.02 µM)
Method in brief: as §1

Cell Line	relative viability ([1]; first compound 1 µM)	relative viability ([1]; first compound 3.162 µM)	relative viability ([1]; first compound 10 µM)	relative viability ([1]; first compound 31.62 µM)	relative viability ([1]; first compound 100 µM)	relative viability ([2]; first compound 1 µM)	relative viability ([2]; first compound 3.162 µM)	relative viability ([2]; first compound 10 µM)	relative viability ([2]; first compound 100 µM)	relative viability ([3]; first compound 0.08 µM)	relative viability ([3]; first compound 0.253 µM)	relative viability ([3]; first compound 0.8 µM)	relative viability ([3]; first compound 2.53 µM)	relative viability ([4]; first compound 0.08 µM)	relative viability ([4]; first compound 0.253 µM)	relative viability ([4]; first compound 0.8 µM)	relative viability ([4]; first compound 2.53 µM)	relative viability ([2]; first compound 31.62 µM)
NCI-H2405	1.08	1.07	1.08	1.04	1.04	1.35	1.01	0.814	0.742	0.948	0.816	0.987	0.925	0.674	0.606	0.78	0.638	–
NCI-H3122	0.985	1.04	1.01	0.915	0.917	1.05	0.991	1.11	0.718	0.991	1.01	1.02	1.03	0.202	0.241	0.225	0.258	0.829
PC-3 [JPC-3]	1.16	1.03	1.12	0.976	1.03	1.1	–	0.536	0.764	0.867	0.775	0.869	0.91	0.756	0.737	0.697	0.719	–
PC-14	0.945	0.939	1.02	0.848	0.981	0.755	0.706	0.587	0.482	0.948	0.944	1.02	1.08	0.879	0.738	0.926	0.72	0.516
RERF-LC-KJ	0.843	0.918	0.962	0.818	0.869	0.707	0.655	0.673	0.516	0.951	0.98	0.793	0.799	0.968	0.909	1.07	0.81	0.626
SK-LU-1	0.846	0.867	0.954	0.671	0.799	0.744	0.81	0.728	0.713	1.04	1.04	1.38	0.902	0.52	0.565	0.576	0.443	0.632
SK-MES-1	0.964	0.962	0.938	0.75	1.17	1.08	1.2	1.04	0.965	1.13	1.19	1.26	1.17	0.534	0.508	0.456	0.499	0.94
SW 1573	0.741	0.845	0.982	0.996	0.868	0.799	0.861	0.924	0.0513	0.908	0.914	1.17	1.16	0.668	0.473	0.748	0.608	0.478
